Data from patent publication US10981896B2, “Indolinone derivatives as inhibitors of maternal embryonic leucine zipper kinase” (BOARD OF REGENTS, THE UNIVERSITY OF TEXAS SYSTEM, priority 2017, dated 2021).
Like-named read-outs stand apart in the source and are kept apart here.

Legend:
Format in all cases: biochemical
MELK = MELK (Homo sapiens (Human), UniProt Q14680); test: MELK p81-based kinase assay, dose-response (IC50/Ki); conditions: for IC50: 40 μM ATP
Description: MELK and its substrate, Bcl-G were both recombinantly expressed and purified for use in screening assays (See Methods). […] 10 nM MELK 340 and 10 μM Bcl-GL in kinase assay buffer (50 mM HEPES pH 7.5, 100 mM KCl, 0.1 mM EDTA, 0.1 mM EGTA, 10 mM MgCl2, 10 μg/mL BSA) with 10 mM DTT were added to either 10 μM or 1 μM inhibitor aliquoted into 96 well plates (final 1% DMSO). The mixture was incubated at room temperature for 30 minutes prior to initiation of the assay with 40 μM γ-^32P-ATP (100-1000 CPM/pmol). 40 μL aliquots were spotted onto a p81 96 well filter plate (Unifilter, Whatman), quenched, and washed with 75 mM O-phosphoric acid 8 times, followed by a final wash with acetone for drying. Wells were then filled with scintillation fluid, sealed, and quantified using a MicroBeta TriLux liquid scintillation counter (PerkinElmer). Each inhibitor plate was assayed in duplicate, with at least 4 wells without MELK to establish background and at least 4 wells without inhibitor as a negative control. All readings were corrected for background signal based on the average counts from the wells without enzyme. Percent inhibition, defined as [100−(CPM+inhibitor/average CPM of positive controls)*100], was determined first at 10 μM inhibitor. The top 50 inhibitors were then re-screened in duplicate at 1 μM.
At set time points (0.25, 0.5, 1, 1.5, and 2 min for assays containing 10 nM MELK and 1, 2, 4, 6, and 10 min for assays containing 1 nM MELK), 30 μL aliquots were taken from each reaction and spotted onto 2×2 cm squares of p81 paper. Papers were washed 4 times in 75 mM O-phosphoric acid and once in acetone. Labeled protein was quantified by its associated CPM determined on a Packard 1500 scintillation counter at a sigma value of 2. CPM were translated into nmol ^32P incorporated using Equation 1.
Rates in the presence of each concentration of inhibitor were determined by plotting nmol ^32P incorporated vs. time. These rates were normalized to rates obtained without inhibitor, and data were plotted in terms of fractional activity. In most cases, data were fit to Equation 2. If the IC50 approached the amount of enzyme used in the assay, data were re-fit to the equation for tight-binding inhibitors (the Morrison equation, […]). […] Data were transformed as discussed and fit to Equation 3.
IC50 values were used to estimate each inhibitor's Ki using the Cheng-Prusoff relationship for competitive inhibitors (Equation 4).

AMPK [1] = test: Selectivity dose-response kinase assay, AMPK
Text: (§1) CHK1 and NUAK1 were purchased from SignalChem (Vancouver, BC). The NUAK2, CHK, and SAMS peptides were purchased from BioSyn (Lewisville, Tex.). The sequence of CHK and NUAK2 peptides are described elsewhere (Sanchez Y, et al. Science (New York, N.Y.). 1997; 277(5331):1497-1501; Scott J W, et al. Sci Rep. 2015; 5:14436). ERK2, AMPK, CAMKK2, and Ets1 were produced in house as previously described (Waas W F, Dalby K N. The Journal of biological chemistry. 2002; 277(15):12532-12540; Neumann D, et al. Protein Expr Purif. 2003; 30(2):230-237; Waas W F, Dalby K N. Protein Expr Purif. 2001; 23(1):191-197). Apparent KM values for ATP under specific assay conditions were determined using respective experimental conditions in Table 8 with varied ATP (0-1.28 mM). All selectivity dose-response assays were performed in kinase assay buffer (see Inhibitor Library Screen) with 2 mM DTT and 100 μM γ-^32P-ATP with additional conditions listed in Table 8. IC50 and KM^ATP values were subsequently used to calculate Ki (Equation 4). Relative selectivity was determined by comparing Ki^Enzyme/Ki^MELK (termed φ in Table 7). […] Standard error from linear regression data was propagated internally in Prism and taken into account in nonlinear regression to determine IC50 or Ki.

AMPK [2] = molecular target: AMPK (Rattus norvegicus (Rat), UniProt P54645); test: Selectivity dose-response kinase assay, AMPK; conditions: 100 μM ATP
Text: as §1

NUAK1 = NUAK1 (Homo sapiens (Human), UniProt O60285); test: Selectivity dose-response kinase assay, NUAK1; conditions: for Ki: 100 μM ATP
Text: as §1

CHK1 = CHK1 (Homo sapiens (Human), UniProt O14757); test: Selectivity dose-response kinase assay, CHK1; conditions: for Ki: 100 μM ATP
Text: as §1

CAMKK2 = CAMKK2 (Homo sapiens (Human), UniProt Q96RR4); test: Selectivity dose-response kinase assay, CAMKK2; conditions: for Ki: 100 μM ATP
Text: as §1

ERK2 = ERK2 (Rattus norvegicus (Rat), UniProt P63086); test: Selectivity dose-response kinase assay, ERK2
Text: as §1

[3] = cross-inhibition of MELK by known kinase inhibitors, read-out: IC50 ± SE
[4] = fragment and intermediate potency (synthetic intermediates), read-out: Ki ± SD
[5] = Ki calculated using Equation 4, [ATP] = 40 μM, KM app (ATP) = 6 μM
[6] = Ki calculated using Equation 4, [ATP] = 40 μM, KM app (ATP) = 6 μM, read-out: Ki ± SE
[7] = indolinone derivatives, read-out: IC50
[8] = selectivity table, MELK, read-out: Ki

CAMKK2, sequence (Q96RR4 whole entry, species assumed): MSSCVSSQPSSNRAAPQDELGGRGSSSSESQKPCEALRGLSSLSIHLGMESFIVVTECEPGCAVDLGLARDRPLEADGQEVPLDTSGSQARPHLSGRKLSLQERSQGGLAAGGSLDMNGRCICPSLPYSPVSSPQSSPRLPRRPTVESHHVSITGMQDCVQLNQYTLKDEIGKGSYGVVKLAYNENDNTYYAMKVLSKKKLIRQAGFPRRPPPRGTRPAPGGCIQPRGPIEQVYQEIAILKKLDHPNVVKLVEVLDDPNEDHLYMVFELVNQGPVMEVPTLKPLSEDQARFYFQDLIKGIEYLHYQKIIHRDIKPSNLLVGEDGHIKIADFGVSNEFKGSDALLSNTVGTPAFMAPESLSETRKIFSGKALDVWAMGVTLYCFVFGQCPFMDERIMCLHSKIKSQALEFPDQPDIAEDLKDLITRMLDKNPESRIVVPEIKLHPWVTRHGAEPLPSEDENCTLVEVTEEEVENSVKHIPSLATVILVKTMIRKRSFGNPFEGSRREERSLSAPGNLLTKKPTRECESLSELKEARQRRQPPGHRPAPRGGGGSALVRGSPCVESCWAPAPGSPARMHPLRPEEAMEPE
MELK, sequence (Q14680 1-340): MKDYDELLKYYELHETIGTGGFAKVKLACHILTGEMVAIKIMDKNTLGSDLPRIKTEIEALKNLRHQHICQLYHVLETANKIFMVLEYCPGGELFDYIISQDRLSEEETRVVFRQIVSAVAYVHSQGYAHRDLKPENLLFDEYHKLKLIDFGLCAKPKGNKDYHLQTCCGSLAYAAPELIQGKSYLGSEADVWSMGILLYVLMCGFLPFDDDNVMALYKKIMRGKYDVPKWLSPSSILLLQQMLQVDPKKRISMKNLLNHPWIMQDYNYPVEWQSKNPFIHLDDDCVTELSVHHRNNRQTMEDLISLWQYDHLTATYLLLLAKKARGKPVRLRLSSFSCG
ERK2, sequence (P63086 whole entry): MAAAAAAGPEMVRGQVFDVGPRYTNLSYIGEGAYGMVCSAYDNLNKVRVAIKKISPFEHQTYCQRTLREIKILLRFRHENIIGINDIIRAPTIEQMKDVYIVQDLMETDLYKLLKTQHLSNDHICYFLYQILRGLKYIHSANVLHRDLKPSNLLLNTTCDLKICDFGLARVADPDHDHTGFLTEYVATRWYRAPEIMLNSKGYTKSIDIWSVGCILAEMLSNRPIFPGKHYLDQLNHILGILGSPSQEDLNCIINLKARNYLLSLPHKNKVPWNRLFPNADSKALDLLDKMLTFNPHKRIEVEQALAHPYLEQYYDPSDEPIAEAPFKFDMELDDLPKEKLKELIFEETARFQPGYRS
NUAK1, sequence (O60285 whole entry): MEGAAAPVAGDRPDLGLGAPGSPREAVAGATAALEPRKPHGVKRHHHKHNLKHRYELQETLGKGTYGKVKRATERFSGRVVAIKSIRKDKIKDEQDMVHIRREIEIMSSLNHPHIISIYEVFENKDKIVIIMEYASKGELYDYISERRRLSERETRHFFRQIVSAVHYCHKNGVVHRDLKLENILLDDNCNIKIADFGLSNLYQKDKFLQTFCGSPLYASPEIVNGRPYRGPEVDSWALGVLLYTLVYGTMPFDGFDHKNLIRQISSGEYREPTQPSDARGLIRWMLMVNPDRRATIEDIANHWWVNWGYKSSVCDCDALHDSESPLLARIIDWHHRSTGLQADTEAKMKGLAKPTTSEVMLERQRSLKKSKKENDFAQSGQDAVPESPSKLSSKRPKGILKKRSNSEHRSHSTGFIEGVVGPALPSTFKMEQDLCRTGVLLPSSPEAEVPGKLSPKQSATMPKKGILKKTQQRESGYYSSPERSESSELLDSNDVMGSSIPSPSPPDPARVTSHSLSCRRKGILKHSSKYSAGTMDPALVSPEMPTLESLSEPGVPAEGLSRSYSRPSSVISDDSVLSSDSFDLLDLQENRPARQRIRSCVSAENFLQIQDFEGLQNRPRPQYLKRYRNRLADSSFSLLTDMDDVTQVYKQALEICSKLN
CHK1, sequence (O14757 whole entry): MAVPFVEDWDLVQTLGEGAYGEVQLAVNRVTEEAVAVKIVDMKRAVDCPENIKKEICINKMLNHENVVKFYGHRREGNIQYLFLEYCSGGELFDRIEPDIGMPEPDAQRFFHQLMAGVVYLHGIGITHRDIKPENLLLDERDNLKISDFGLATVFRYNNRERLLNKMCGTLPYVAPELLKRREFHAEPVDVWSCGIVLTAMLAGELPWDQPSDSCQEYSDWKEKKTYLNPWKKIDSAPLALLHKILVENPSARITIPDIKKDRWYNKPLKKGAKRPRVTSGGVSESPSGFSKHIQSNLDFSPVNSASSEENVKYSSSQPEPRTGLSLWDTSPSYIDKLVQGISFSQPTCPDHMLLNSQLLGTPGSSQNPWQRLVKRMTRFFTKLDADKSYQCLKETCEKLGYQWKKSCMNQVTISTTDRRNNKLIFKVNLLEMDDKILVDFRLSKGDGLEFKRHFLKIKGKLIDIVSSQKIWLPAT
AMPK (Rattus norvegicus (Rat), UniProt P54645), sequence (P54645 whole entry, looked up): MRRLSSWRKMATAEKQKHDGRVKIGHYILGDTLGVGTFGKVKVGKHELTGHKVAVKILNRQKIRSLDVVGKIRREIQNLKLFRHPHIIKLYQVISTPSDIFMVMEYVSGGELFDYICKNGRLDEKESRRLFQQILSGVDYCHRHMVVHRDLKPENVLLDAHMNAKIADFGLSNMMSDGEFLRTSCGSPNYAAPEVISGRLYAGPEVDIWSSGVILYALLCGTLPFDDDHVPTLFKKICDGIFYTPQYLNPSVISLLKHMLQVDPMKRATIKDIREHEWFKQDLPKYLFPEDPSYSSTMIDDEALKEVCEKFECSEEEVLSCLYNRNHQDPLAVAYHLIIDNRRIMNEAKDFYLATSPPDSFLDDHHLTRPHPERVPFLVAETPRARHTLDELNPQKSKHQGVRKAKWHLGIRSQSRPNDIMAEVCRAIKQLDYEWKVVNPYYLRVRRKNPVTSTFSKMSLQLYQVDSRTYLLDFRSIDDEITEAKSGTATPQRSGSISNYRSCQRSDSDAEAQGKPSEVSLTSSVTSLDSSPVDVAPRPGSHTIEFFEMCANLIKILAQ
AMPK (Rattus norvegicus (Rat), UniProt P54645), sequence (P80386 whole entry partner, looked up): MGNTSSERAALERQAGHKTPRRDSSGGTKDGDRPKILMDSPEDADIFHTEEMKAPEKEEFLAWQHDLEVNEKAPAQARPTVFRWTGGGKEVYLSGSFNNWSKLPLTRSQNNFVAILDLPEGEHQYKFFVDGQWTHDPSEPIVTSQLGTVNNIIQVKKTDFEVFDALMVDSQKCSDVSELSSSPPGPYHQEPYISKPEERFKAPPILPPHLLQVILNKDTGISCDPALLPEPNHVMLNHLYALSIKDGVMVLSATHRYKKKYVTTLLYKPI
AMPK (Rattus norvegicus (Rat), UniProt P54645), sequence (P80385 whole entry partner, looked up): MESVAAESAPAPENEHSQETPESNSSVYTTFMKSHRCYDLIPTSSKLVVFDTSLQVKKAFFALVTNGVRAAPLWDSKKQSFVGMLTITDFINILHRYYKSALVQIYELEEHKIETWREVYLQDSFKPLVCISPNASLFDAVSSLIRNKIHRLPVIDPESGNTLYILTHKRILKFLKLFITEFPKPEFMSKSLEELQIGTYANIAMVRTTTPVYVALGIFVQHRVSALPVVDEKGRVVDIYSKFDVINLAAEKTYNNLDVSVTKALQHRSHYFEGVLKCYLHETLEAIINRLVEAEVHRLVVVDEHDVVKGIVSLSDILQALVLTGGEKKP

NC(=O)Nc1cc(-c2cccc(F)c2)sc1C(=O)N[C@@H]1CCCNC1 [AZD776, reference compound]
IC50 (MELK; [3]): 900 ± 91 nM

c1cc(OCCN2CCCCC2)cc(-c2n[nH]c3ccc(-c4nc[nH]n4)cc23)c1 [CC401, reference compound]
IC50 (MELK; [3]): 340 ± 70 nM

CCO/C(=C1\C(=O)N(C(C)=O)c2cc(C(=O)OC)ccc21)c1ccccc1 [Compound 6, Methyl (Z)-1-acetyl-3-(ethoxy(phenyl)methylene)-2-oxoindoline-6-carboxylate]
Ki (MELK; [4]): > 5000 nM

CCO/C(=C1\C(=O)N(C(C)=O)c2ccc(C(=O)OC)cc21)c1ccccc1 [Compound 8, Methyl (Z)-1-acetyl-3-(ethoxy(phenyl)methylene)-2-oxoindoline-5-carboxylate]
Ki (MELK; [4]): > 5000 nM

CN1CCN(CC(=O)N(C)c2ccc(N)cc2)CC1 [Compound 14, N-(4-Aminophenyl)-N-methyl-2-(4-methylpiperazin-1-yl)acetamide]
Ki (MELK; [4]): > 5000 nM

CN1CCN(CC(=O)N(C)c2ccc(N/C(=C3\C(=O)Nc4ccccc43)c3ccccc3)cc2)CC1 [Compound 16, (Z)—N-Methyl-2-(4-methylpiperazin-1-yl)-N-(4-(((2-oxoindolin-3-ylidene)(phenyl)methyl)amino)phenyl)acetamide]
difference in Ki compared to MELK (AMPK [1]): 5-10 fold | Ki (AMPK [2]): 4.2 ± 0.3 nM | difference in Ki compared to MELK (NUAK1): 5-10 fold | Ki (NUAK1): 1.7 ± 0.17 nM | Ki (CHK1): 10 ± 0.5 nM | Ki (CAMKK2): 15 ± 1.8 nM | Ki ± SE (MELK; [5]): subnanomolar | Ki (MELK; [6]): 0.47 nM | IC50 (MELK; [7]): 3.6 ± 0.4 nM | Ki (MELK; [8]): 0.47 ± 0.06 nM

CC(=O)c1ccc2c(c1)/C(=C(/Nc1ccc(N(C)C(=O)CN3CCN(C)CC3)cc1)c1ccccc1)C(=O)N2 [Compound 18, (Z)—N-(4-(((5-Acetyl-2-oxoindolin-3-ylidene)(phenyl)methyl)amino)phenyl)-N-methyl-2-(4-methylpiperazin-1-yl)acetamide]
Ki (MELK; [6]): 46 ± 4.6 nM | IC50 (MELK; [7]): 354 ± 35 nM

CN1CCN(CC(=O)N(C)c2ccc(N/C(=C3\C(=O)Nc4cc(C(=O)O)ccc43)c3ccccc3)cc2)CC1 [Compound 20, (Z)-3-(((4-(N-Methyl-2-(4-methylpiperazin-1-yl)acetamido)phenyl)amino)(phenyl)methylene)-2-oxoindoline-6-carboxylic acid]
Ki (MELK; [6]): 149 ± 22 nM | IC50 (MELK; [7]): 1140 ± 168 nM

CN1CCN(CC(=O)N(C)c2ccc(N/C(=C3\C(=O)Nc4ccc(C(=O)O)cc43)c3ccccc3)cc2)CC1 [Compound 21, (Z)-3-(((4-(N-Methyl-2-(4-methylpiperazin-1-yl)acetamido)phenyl)amino)(phenyl)methylene)-2-oxoindoline-5-carboxylic acid]
φ = Ki Enzyme/Ki MELK (AMPK [1]): 7.2 ± 0.2 | Ki (AMPK [2]): 4.9 ± 0.6 nM | φ = Ki Enzyme/Ki MELK (NUAK1): 13 ± 0.2 | Ki (NUAK1): 8.6 ± 1.6 nM | difference in relative Ki compared to MELK (CHK1): > 100 fold | φ = Ki Enzyme/Ki MELK (CHK1): 120 ± 0.1 | Ki (CHK1): 81 ± 5.6 nM | difference in relative Ki compared to MELK (CAMKK2): > 100 fold | φ = Ki Enzyme/Ki MELK (CAMKK2): 125 ± 0.2 | Ki (CAMKK2): 85 ± 9.2 nM | Ki ± SE (MELK; [5]): subnanomolar | Ki (MELK; [6]): 0.68 ± 0.07 nM | φ = Ki Enzyme/Ki MELK (MELK; MELK): 1.00 | IC50 (MELK; [7]): 5.2 ± 0.5 nM | Ki (MELK; [8]): 0.68 ± 0.07 nM | difference in relative Ki compared to MELK (ERK2): > 100 fold | φ = Ki Enzyme/Ki MELK (ERK2): 28000 ± 0.2 | Ki (ERK2; 100 μM ATP): 19000 ± 3800 nM

CN(C)CCCNC(=O)c1ccc2c(c1)NC(=O)/C2=C(\Nc1ccc(N(C)C(=O)CN2CCN(C)CC2)cc1)c1ccccc1 [Compound 22, (Z)—N-(3-(Dimethylamino)propyl)-3-(((4-(N-methyl-2-(4-methylpiperazin-1-yl)acetamido)phenyl)amino)(phenyl)methylene)-2-oxoindoline-6-carboxamide]
Ki (MELK; [6]): 358 ± 71 nM | IC50 (MELK; [7]): 2700 ± 540 nM

CN1CCN(CC(=O)N(C)c2ccc(N/C(=C3\C(=O)Nc4cc(C(=O)NCCCN)ccc43)c3ccccc3)cc2)CC1 [Compound 23, (Z)—N-(3-Aminopropyl)-3-(((4-(N-methyl-2-(4-methylpiperazin-1-yl)acetamido)phenyl)amino)(phenyl)methylene)-2-oxoindoline-6-carboxamide]
IC50 (MELK; [7]): > 5000 nM

CNC(=O)c1ccc2c(c1)/C(=C(/Nc1ccc(N(C)C(=O)CN3CCN(C)CC3)cc1)c1ccccc1)C(=O)N2 [Compound 24, (Z)—N-Methyl-3-(((4-(N-methyl-2-(4-methylpiperazin-1-yl)acetamido)phenyl)amino)(phenyl)methylene)-2-oxoindoline-5-carboxamide]
Ki (MELK; [6]): 2.3 nM | IC50 (MELK; [7]): 18 ± 3.8 nM

CC(C)(C)c1nc2c3ccc(F)cc3c3c(=O)[nH]ccc3c2[nH]1 [Compound 420099, reference compound]
IC50 (MELK; [3]): 330 ± 37 nM

O=C1Nc2ccc3scnc3c2/C1=C/c1cnc[nH]1 [Compound 527450, reference compound]
IC50 (MELK; [3]): 720 ± 100 nM

CCN(CC)CCNC(=O)c1c(C)[nH]c(/C=C2\C(=O)Nc3ccc(Cl)cc32)c1C [Compound 572660, reference compound]
IC50 (MELK; [3]): 760 ± 190 nM

N=C(N)NCCNS(=O)(=O)c1cccc2cnccc12 [HA-1004, reference compound]
IC50 (MELK; [3]): 440 ± 210 nM

CCS(=O)(=O)Nc1ccc2c(c1)/C(=C(/Nc1ccc(CN3CCCCC3)cc1)c1ccccc1)C(=O)N2 [Hesperadin, reference compound]
IC50 (MELK; [3]): 225 ± 50 nM

Cc1ccc([N+](=O)[O-])cc1S(=O)(=O)N(C)/N=C/c1cnc2ccc(Br)cn12 [PIK75, reference compound]
IC50 (MELK; [3]): 400 ± 72 nM
